Values quoted from earlier work, collected in US20240050408A1, “USE OF MGLUR5 ANTAGONISTS FOR TREATING AMPHETAMINE ADDICTION” (NOVARTIS AG, priority 2020, published 2024).

How the values were obtained:
[1] = tested on: methamphetamine conditioned place preference; details: rats; Herrold et al. 2013; cited from earlier work
[2] = tested on: methamphetamine self-administration behavior; details: rat model; Gass et al. 2009; cited from earlier work

SMILES | maintenance of the expression of methamphetamine conditioned place preference [1] | cue- and drug-induced reinstatement of methamphetamine-seeking behavior [2] | cue-induced reinstatement of food-seeking behavior [2] | methamphetamine self-administration behavior [2] | overall responding for food [2]
Cc1cccc(C#Cc2ccccc2)n1 [MPEP, 2-Methyl-6-(phenylethynyl)-pyridine] | inhibited | – | – | – | –
Cc1nc(C#Cc2cccnc2)cs1 [MTEP, 3-[(2-methyl-1,3-thiazol-4-yl)ethynyl]pyridine] | inhibited | dose dependently prevented | did not alter | dose dependently reduced | without altering
